Starred links: 1 amine or outer side, 2 acyl side, 3 side chain; linkers in the order of their positions; H or OH if unused. Positions of bridges follow the written chain, without caps; N, C: chain ends. Non-standard residues stand in square brackets, D forms with d. Residues, ends and D or L forms follow the SMILES beside them. Groups on a side chain read outwards from the residue. *: point of attachment. X1 = C[N+](C)(CCNC(=O)CCCCCCCCCCCCCCCCC(=O)O)CC(=O)*; Trp(6-OMe) = COc1ccc2c(C[C@H](N)C(=O)O)c[nH]c2c1; C18 diacid = O=C(O)CCCCCCCCCCCCCCCCC(=O)*; Dip = N[C@H](C(=O)O)C(c1ccccc1)c1ccccc1; γGlu = O=C(O)[C@H](CCC(=O)[*:2])N[*:1]; Palmitoyl = CCCCCCCCCCCCCCCC(=O)*; NMeF = CN[C@@H](Cc1ccccc1)C(=O)O; NMeT = CN[C@H](C(=O)O)[C@@H](C)O; β3hF = N[C@H](CC(=O)O)Cc1ccccc1; NMeK = CN[C@@H](CCCCN)C(=O)O; Pen = CC(C)(S)[C@H](N)C(=O)O; Isovaleryl = CC(C)CC(=O)*; NMeC = CN[C@@H](CS)C(=O)O; hCys = N[C@@H](CCS)C(=O)O; Dap = NC[C@H](N)C(=O)O; AEEA = NCCOCCOCC(=O)O; Ahx = NCCCCCC(=O)O
These molecules were tested against T1, ferroportin (Homo sapiens, UniProt Q9NP59) (assay: FPN activity assay: ferroportin-GFP internalization/degradation in HEK293 cells). Conditions: Table 6E; ferroportin-GFP internalization/degradation, at least 18 hours incubation; read-out: FPN IC50.
T1 sequence (Q9NP59 1-571): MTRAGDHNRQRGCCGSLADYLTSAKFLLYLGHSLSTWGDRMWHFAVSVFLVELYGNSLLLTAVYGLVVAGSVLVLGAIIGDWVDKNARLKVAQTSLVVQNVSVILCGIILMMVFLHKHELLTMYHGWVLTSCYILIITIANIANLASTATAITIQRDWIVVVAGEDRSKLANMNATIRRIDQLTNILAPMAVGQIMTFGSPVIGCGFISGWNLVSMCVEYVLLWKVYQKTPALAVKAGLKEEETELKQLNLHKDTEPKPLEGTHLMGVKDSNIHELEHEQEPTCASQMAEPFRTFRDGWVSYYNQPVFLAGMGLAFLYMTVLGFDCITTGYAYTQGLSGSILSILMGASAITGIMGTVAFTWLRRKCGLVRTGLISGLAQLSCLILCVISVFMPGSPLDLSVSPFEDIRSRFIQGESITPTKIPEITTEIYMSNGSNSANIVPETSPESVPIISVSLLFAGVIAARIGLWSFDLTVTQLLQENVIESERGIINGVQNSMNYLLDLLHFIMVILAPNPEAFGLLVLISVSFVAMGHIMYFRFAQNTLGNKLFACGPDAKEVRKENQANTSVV
Format: cell-based
Design: expressed in transfected cells
Procedure: Following internalization, the ferroporin protein is degraded.
A retro inverse peptide is a peptide with a reversed sequence in all D amino acids. An example is that Hy-Glu-Thr-His-NH2 becomes Hy-DHis-DThr-DGlu-NH2. The EC50 of these reference compounds for ferroportin internalization/degradation was determined according to the FPN activity assay described above. These peptides served as control standards.
In the case of `COC(=O)CC[C@H](NC(=O)CC(C)C)C(=O)N(C)[C@H](C(=O)N[C@@H](Cc1c[nH]cn1)C(=O)N[C@H](C(=O)N1CCC[C@H]1C(=O)N[C@H]1CSSC[C@@H](C(=O)N(C)[C@@H](CCCCNC(=O)C[N+](C)(C)CCNC(=O)CCCCCCCCCCCCCCCCC(=O)O)C(=O)N(C)[C@@H](Cc2ccccc2)C(N)=O)NC1=O)C(c1ccccc1)c1ccccc1)[C@@H](C)O` [compound 185] (Isovaleryl-E(OMe)[NMeT]H[Dip]PCC[NMeK](X1)[NMeF]-NH2; disulfide 6-7), the DC50 is reported as greater than 500 nM.

Same assay, conditions: ferroportin-GFP HEK293 cells, at least 18 hours; read-out: FPN IC50
Work on `CCCCCCCCCCCCCCCC(=O)NCCCCCC(=O)NCCCC[C@H](NC(=O)C[C@H](Cc1ccccc1)NC(=O)[C@@H]1CSSC[C@@H](NC(=O)CC(C)C)C(=O)N[C@@H]([C@@H](C)O)C(=O)N[C@@H](Cc2c[nH]cn2)C(=O)N[C@@H](C(c2ccccc2)c2ccccc2)C(=O)N2CCC[C@H]2C(=O)N[C@@H](C)C(=O)N[C@@H]([C@@H](C)CC)C(=O)N1)C(=O)N[C@H](CCCCN)C(N)=O` [compound 107] (Isovaleryl-[dC]TH[Dip]PAIC[β3hF]K([Ahx-Palmitoyl])[dK]-NH2; disulfide 1-8) yielded a DC50 of 10 to 100 nM. Molecule `CCCCCCCCCCCCCCCC(=O)NCCCCCC(=O)NCCCC[C@H](NC(=O)[C@@H](NC(=O)[C@@H]1CSSC(C)(C)[C@H](N)C(=O)N[C@@H](CCC(=O)O)C(=O)N[C@@H]([C@@H](C)O)C(=O)N[C@@H](Cc2c[nH]cn2)C(=O)N[C@@H](C(c2ccccc2)c2ccccc2)C(=O)N2CCC[C@H]2C(=O)N1)[C@@H](C)CC)C(=O)N[C@H](CC(N)=O)Cc1ccccc1` [Compd 11] (H-[Pen]ETH[Dip]PCIK([Ahx-Palmitoyl])[β3hF]-NH2; disulfide 1-7) has a DC50 greater than 500 nM. `CCCCCCCCCCCCCCCC(=O)NCCCCCC(=O)NCCCC[C@H](NC(=O)C[C@H](Cc1ccccc1)NC(=O)[C@@H](CCCCN)NC(=O)[C@@H]1CSSC[C@H](NC(=O)[C@@H]2CCCN2C(=O)[C@@H](NC(=O)[C@H](Cc2c[nH]cn2)NC(=O)[C@@H](NC(=O)[C@H](CCC(=O)O)NC(=O)CC(C)C)[C@@H](C)O)C(c2ccccc2)c2ccccc2)C(=O)N1)C(=O)N[C@H](CCCCN)C(N)=O` [Compd 6] (Isovaleryl-ETH[Dip]PCC[dK][β3hF]K([Ahx-Palmitoyl])[dK]-NH2; disulfide 6-7) showed a DC50 of 10 to 100 nM. In the case of `CCCCCCCCCCCCCCCC(=O)N[C@@H](CCC(=O)NCCCC[C@H](NC(=O)[C@@H](NC(=O)[C@@H]1CSSC[C@H](NC(=O)[C@@H]2CCCN2C(=O)[C@H](Cc2ccccc2)NC(=O)[C@H](Cc2c[nH]cn2)NC(=O)[C@@H](NC(=O)[C@H](CC(=O)O)NC(=O)CC(C)C)[C@@H](C)O)C(=O)N1)[C@@H](C)CC)C(=O)N[C@@H](Cc1ccccc1)C(=O)N[C@@H](CCC(=O)O)C(=O)N1CCC[C@H]1C(=O)N[C@@H](CCCNC(=N)N)C(=O)O)C(=O)O` [Compd 101] (Isovaleryl-DTHFPCCIK([γGlu-Palmitoyl])FEPR-OH; disulfide 6-7), the DC50 is reported as 10 to 100 nM. Molecule `CCCCCCCCCCCCCCCC(=O)NCCCCCC(=O)NCCCC[C@H](NC(=O)C[C@H](Cc1ccccc1)NC(=O)[C@@H]1CSSCC[C@H](NC(=O)CC(C)C)C(=O)N[C@@H]([C@@H](C)O)C(=O)N[C@@H](Cc2cnc[nH]2)C(=O)N[C@@H](C(c2ccccc2)c2ccccc2)C(=O)N2CCC[C@H]2C(=O)N[C@@H](C)C(=O)N[C@@H]([C@@H](C)CC)C(=O)N1)C(=O)N[C@H](CCCCN)C(N)=O` [compound 110] (Isovaleryl-[hCys]TH[Dip]PAIC[β3hF]K([Ahx-Palmitoyl])[dK]-NH2; disulfide 1-8) has a DC50 of 1 to 10 nM. `CC[C@H](C)[C@H](NC(=O)[C@@H]1CSSC[C@H](NC(=O)[C@H](Cc2c[nH]cn2)NC(=O)[C@@H](NC(=O)[C@H](CCC(=O)O)NC(=O)CC(C)C)[C@@H](C)O)C(=O)N2CCC[C@H]2C(=O)N1)C(=O)N[C@H](CCCCN)C(=O)N[C@H](CC(=O)N[C@@H](CCCCNC(=O)COCCOCCNC(=O)COCCOCCNC(=O)CCCCCNC(=O)CCCCCCCCCCCCCCCCC(=O)O)C(=O)N[C@H](CCCCN)C(N)=O)Cc1ccccc1` [Compd 24] (Isovaleryl-ETHCPCI[dK][β3hF]K([AEEA-AEEA-Ahx-C18 diacid])[dK]-NH2; disulfide 4-6) gave a DC50 of 100 to 500 nM. With `CCCCCCCCCCCCCCCC(=O)NCCCCCC(=O)NCCCC[C@H](NC(=O)C[C@H](Cc1ccccc1)NC(=O)[C@H]1NC(=O)[C@H]([C@@H](C)CC)NC(=O)[C@H](C)NC(=O)[C@@H]2CCCN2C(=O)[C@H](C(c2ccccc2)c2ccccc2)NC(=O)[C@H](Cc2c[nH]cn2)NC(=O)[C@H]([C@@H](C)O)NC(=O)[C@@H](NC(=O)CC(C)C)CCSSC1(C)C)C(=O)N[C@H](CCCCN)C(N)=O` [compound 109] (Isovaleryl-[hCys]TH[Dip]PAI[Pen][β3hF]K([Ahx-Palmitoyl])[dK]-NH2; disulfide 1-8) the DC50 was 10 to 100 nM. Work on `CCCCCCCCCCCCCCCC(=O)NCCCCCC(=O)NCCCC[C@H](NC(=O)C[C@H](Cc1ccccc1)NC(=O)[C@@H](CCCCN)NC(=O)[C@@H](NC(=O)[C@@H]1CSSC[C@H](NC(=O)[C@@H](NC(=O)[C@H](Cc2c[nH]cn2)NC(=O)[C@@H](NC(=O)[C@H](CCC(=O)O)NC(=O)CC(C)C)[C@@H](C)O)C(c2ccccc2)c2ccccc2)C(=O)N1)[C@@H](C)CC)C(=O)N[C@H](CCCCN)C(N)=O` [Compd 4] (Isovaleryl-ETH[Dip]CCI[dK][β3hF]K([Ahx-Palmitoyl])[dK]-NH2; disulfide 5-6) yielded a DC50 of 10 to 100 nM. `CCCCCCCCCCCCCCCC(=O)NCCCCCC(=O)NCCCC[C@H](NC(=O)[C@@H](NC(=O)[C@@H]1CCSSC[C@H](N)C(=O)N[C@@H](C(C)C)C(=O)N[C@@H](CCC(=O)O)C(=O)N[C@@H]([C@@H](C)O)C(=O)N[C@@H](Cc2c[nH]cn2)C(=O)N[C@@H](C(c2ccccc2)c2ccccc2)C(=O)N2CCC[C@H]2C(=O)N1)[C@@H](C)CC)C(=O)N[C@H](CC(N)=O)Cc1ccccc1` [Compd 17] (H-CVETH[Dip]P[hCys]IK([Ahx-Palmitoyl])[β3hF]-NH2; disulfide 1-8) showed a DC50 of 100 to 500 nM.

Same assay, conditions: ferroportin-GFP internalization/degradation, HEK293 cells; Table 6E; read-out: FPN IC50
Molecule `CC(C)CC(=O)N[C@@H](CCC(=O)O)C(=O)N[C@H](C(=O)N[C@@H](Cc1c[nH]cn1)C(=O)N[C@H](C(=O)N1CCC[C@H]1C(=O)N[C@H]1CSSC[C@@H](C(=O)N(C)[C@@H](CCCCNC(=O)COCCOCCNC(=O)COCCOCCNC(=O)[C@H](CN)NC(=O)CCCCCCCCCCCCCCCCC(=O)O)C(=O)N[C@H](CC(=O)N[C@H](CCCCN)C(N)=O)Cc2ccccc2)N(C)C1=O)C(c1ccccc1)c1ccccc1)[C@@H](C)O` [compound 278] (Isovaleryl-ETH[Dip]PC[NMeC][NMeK]([AEEA-AEEA-Dap-C18 diacid])[β3hF][dK]-NH2; disulfide 6-7) has a DC50 of 10 to 100 nM. Molecule `CC(C)CC(=O)N[C@@H](CCC(=O)O)C(=O)N[C@H](C(=O)N[C@@H](Cc1c[nH]cn1)C(=O)N[C@H](C(=O)N1CCC[C@H]1C(=O)N[C@@H]1C(=O)N[C@H](C(=O)N(C)[C@@H](CCCCNC(=O)COCCOCCNC(=O)COCCOCCNC(=O)[C@H](CN)NC(=O)CCCCCCCCCCCCCCCCC(=O)O)C(=O)N[C@H](CC(=O)N[C@H](CCCCN)C(N)=O)Cc2ccccc2)C(C)(C)SSC1(C)C)C(c1ccccc1)c1ccccc1)[C@@H](C)O` [compound 273] (Isovaleryl-ETH[Dip]P[Pen][Pen][NMeK]([AEEA-AEEA-Dap-C18 diacid])[β3hF][dK]-NH2; disulfide 6-7) has a DC50 of 100 to 500 nM. `CC(C)CC(=O)N[C@@H](CCC(=O)O)C(=O)N[C@H](C(=O)N[C@@H](Cc1c[nH]cn1)C(=O)N[C@H](C(=O)N1CCC[C@H]1C(=O)N[C@H]1CSSC[C@@H](C(=O)N(C)[C@@H](CCCCNC(=O)COCCOCCNC(=O)COCCOCCNC(=O)[C@H](CN)NC(=O)CCCCCCCCCCCCCCCCC(=O)O)C(=O)N(C)[C@@H](Cc2ccccc2)C(=O)N[C@H](CCCCN)C(N)=O)N(C)C1=O)C(c1ccccc1)c1ccccc1)[C@@H](C)O` [compound 281] (Isovaleryl-ETH[Dip]PC[NMeC][NMeK]([AEEA-AEEA-Dap-C18 diacid])[NMeF][dK]-NH2; disulfide 6-7) gave a DC50 of 100 to 500 nM. `CC(C)CC(=O)N[C@@H](CCC(=O)O)C(=O)N[C@H](C(=O)N[C@@H](Cc1c[nH]cn1)C(=O)N[C@H](C(=O)N1CCC[C@H]1C(=O)N[C@@H]1C(=O)N[C@H](C(=O)N[C@@H](CCCCNC(=O)COCCOCCNC(=O)COCCOCCNC(=O)[C@H](CN)NC(=O)CCCCCCCCCCCCCCCCC(=O)O)C(=O)N[C@H](CC(=O)N[C@H](CCCCN)C(N)=O)Cc2ccccc2)C(C)(C)SSC1(C)C)C(c1ccccc1)c1ccccc1)[C@@H](C)O` [compound 274] (Isovaleryl-ETH[Dip]P[Pen][Pen]K([AEEA-AEEA-Dap-C18 diacid])[β3hF][dK]-NH2; disulfide 6-7) was tested, and the DC50 was 10 to 100 nM. Molecule `COc1ccc2c(C[C@H](NC(=O)[C@@H](NC(=O)[C@H](CCC(=O)O)NC(=O)CC(C)C)[C@@H](C)O)C(=O)N[C@H](C(=O)N3CCC[C@H]3C(=O)N[C@H]3CSSC[C@@H](C(=O)N(C)[C@@H](CCCCNC(=O)COCCOCCNC(=O)COCCOCCNC(=O)[C@H](CN)NC(=O)CCCCCCCCCCCCCCCCC(=O)O)C(=O)N[C@H](CC(=O)N[C@H](CCCCN)C(N)=O)Cc4ccccc4)NC3=O)C(c3ccccc3)c3ccccc3)c[nH]c2c1` [compound 287] (Isovaleryl-ET[Trp(6-OMe)][Dip]PCC[NMeK]([AEEA-AEEA-Dap-C18 diacid])[β3hF][dK]-NH2; disulfide 6-7) has a DC50 greater than 500 nM.

From patent US20250277012A1 (Protagonist Therapeutics, Inc., priority 2021, published 2025)
